Key:
Test in all cases: HTRF/ADP-Glo kinase selectivity panel
Type in all cases: biochemical
Settings in all cases: 500 nM, read-out: 1D228(%inhibition)@500nM
[1] = molecular target: T1, RON (Homo sapiens, UniProt Q04912)
T1 construct: purchased Invitrogen (c-Met, TRKA, TRKB, TRKC)
Protocol: (§1) The compound was serial diluted from 10 mM stock in DMSO, dilute the test compound to 0.1 mM (200 times the specified test concentration). 2 × ATP & Substrate solution and 2 × kinase & Metal solution were prepared using assay buffer; Transfer 25 nL compound to 384 assay plate by Echo 655; After centrifugation, add 2.5 μL 2 × kinase/metal ion solution 384 assay plate, and incubate at 25 °C for 10 min. 2 × XL665 & Antibody solution were prepared with detection buffer; 5 μL of Kinase Detection Reagent was added to the well, and incubated for 60 min at 25 °C; The fluorescence signals of 620 nm (Cryptate) and 665 nm (XL665) were read by microtiter plate reader; […]

[2] = molecular target: T2, PDGFRα (Homo sapiens, UniProt P16234)
T2 construct: purchased Invitrogen (c-Met, TRKA, TRKB, TRKC)
Protocol: as §1

[3] = molecular target: T3, INSR (Homo sapiens, UniProt P06213)
T3 construct: purchased Invitrogen (c-Met, TRKA, TRKB, TRKC)
Protocol: as §1

[4] = molecular target: T4, HCK (Homo sapiens, UniProt P08631)
T4 construct: purchased Invitrogen (c-Met, TRKA, TRKB, TRKC)
Protocol: as §1

[5] = molecular target: T5, MET (Homo sapiens, UniProt P08581)
T5 construct: purchased Invitrogen (c-Met, TRKA, TRKB, TRKC)
Protocol: as §1

[6] = molecular target: T6, CSK (Homo sapiens, UniProt P41240)
T6 construct: purchased Invitrogen (c-Met, TRKA, TRKB, TRKC)
Protocol: as §1

[7] = molecular target: T7, FGFR3 (Homo sapiens, UniProt P22607)
T7 construct: purchased Invitrogen (c-Met, TRKA, TRKB, TRKC)
T7 sequence (P22607 23-806): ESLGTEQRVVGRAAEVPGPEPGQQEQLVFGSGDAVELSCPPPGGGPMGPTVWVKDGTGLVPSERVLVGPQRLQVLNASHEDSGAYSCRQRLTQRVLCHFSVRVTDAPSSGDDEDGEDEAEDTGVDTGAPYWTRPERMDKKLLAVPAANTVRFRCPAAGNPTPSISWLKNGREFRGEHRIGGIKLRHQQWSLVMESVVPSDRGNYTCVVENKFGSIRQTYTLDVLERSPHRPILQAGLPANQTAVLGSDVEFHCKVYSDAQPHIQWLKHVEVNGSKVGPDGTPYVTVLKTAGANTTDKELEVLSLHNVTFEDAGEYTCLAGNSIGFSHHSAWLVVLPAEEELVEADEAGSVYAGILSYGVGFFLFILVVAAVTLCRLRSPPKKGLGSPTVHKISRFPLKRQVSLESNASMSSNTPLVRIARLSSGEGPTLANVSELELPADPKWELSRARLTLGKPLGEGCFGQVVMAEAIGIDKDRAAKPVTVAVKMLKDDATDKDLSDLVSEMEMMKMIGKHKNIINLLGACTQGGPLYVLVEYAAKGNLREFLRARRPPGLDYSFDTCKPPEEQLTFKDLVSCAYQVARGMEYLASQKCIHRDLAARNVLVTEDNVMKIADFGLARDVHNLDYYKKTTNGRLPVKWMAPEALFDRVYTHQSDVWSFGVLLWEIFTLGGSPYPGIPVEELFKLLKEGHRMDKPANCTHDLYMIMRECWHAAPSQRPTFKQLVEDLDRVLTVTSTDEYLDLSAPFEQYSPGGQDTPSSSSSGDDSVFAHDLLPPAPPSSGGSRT
Protocol: as §1

[8] = molecular target: T8, JAK2 (Homo sapiens, UniProt O60674)
T8 construct: purchased Invitrogen (c-Met, TRKA, TRKB, TRKC)
T8 sequence (O60674 whole entry): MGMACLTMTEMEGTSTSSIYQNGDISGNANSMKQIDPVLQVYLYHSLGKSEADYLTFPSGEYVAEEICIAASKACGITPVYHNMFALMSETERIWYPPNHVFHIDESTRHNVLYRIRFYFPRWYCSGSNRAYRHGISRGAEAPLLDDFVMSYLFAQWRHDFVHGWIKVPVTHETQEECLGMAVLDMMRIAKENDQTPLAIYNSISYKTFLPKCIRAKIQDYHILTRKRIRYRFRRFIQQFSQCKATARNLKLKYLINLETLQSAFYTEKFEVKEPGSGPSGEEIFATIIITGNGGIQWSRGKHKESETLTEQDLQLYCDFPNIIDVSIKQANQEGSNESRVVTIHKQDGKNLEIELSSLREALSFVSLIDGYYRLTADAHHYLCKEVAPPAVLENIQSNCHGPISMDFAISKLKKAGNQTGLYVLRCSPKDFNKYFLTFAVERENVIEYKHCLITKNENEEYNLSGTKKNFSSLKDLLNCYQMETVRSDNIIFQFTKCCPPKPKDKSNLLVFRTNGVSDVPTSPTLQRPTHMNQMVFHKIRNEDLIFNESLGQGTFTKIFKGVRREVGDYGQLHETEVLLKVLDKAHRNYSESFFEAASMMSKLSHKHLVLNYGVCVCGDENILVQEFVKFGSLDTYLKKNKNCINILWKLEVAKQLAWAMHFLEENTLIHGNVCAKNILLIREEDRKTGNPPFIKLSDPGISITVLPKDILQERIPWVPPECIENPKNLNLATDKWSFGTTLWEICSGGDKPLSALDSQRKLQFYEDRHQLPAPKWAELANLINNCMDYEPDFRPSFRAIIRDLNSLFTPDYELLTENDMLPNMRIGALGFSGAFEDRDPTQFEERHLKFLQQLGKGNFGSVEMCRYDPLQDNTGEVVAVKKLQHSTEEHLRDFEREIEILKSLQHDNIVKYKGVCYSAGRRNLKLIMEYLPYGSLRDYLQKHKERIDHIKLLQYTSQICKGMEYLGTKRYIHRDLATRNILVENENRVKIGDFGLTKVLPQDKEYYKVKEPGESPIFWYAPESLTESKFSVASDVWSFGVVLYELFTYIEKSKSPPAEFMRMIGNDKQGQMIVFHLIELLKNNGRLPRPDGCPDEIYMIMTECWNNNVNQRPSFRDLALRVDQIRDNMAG
Protocol: as §1

[9] = molecular target: T9, IRR (Homo sapiens, UniProt P14616)
T9 construct: purchased Invitrogen (c-Met, TRKA, TRKB, TRKC)
Protocol: as §1

[10] = molecular target: T10, FER (Homo sapiens, UniProt P16591)
T10 construct: purchased Invitrogen (c-Met, TRKA, TRKB, TRKC)
Protocol: as §1

[11] = molecular target: T11, EPHA7 (Homo sapiens, UniProt Q15375)
T11 construct: purchased Invitrogen (c-Met, TRKA, TRKB, TRKC)
Protocol: as §1

[12] = molecular target: T12, ITK (Homo sapiens, UniProt Q08881)
T12 construct: purchased Invitrogen (c-Met, TRKA, TRKB, TRKC)
Protocol: as §1

[13] = molecular target: T13, TRKB (Homo sapiens, UniProt Q16620)
T13 construct: purchased Invitrogen
Protocol: as §1

[14] = molecular target: T14, KDR (Homo sapiens, UniProt P35968)
T14 construct: purchased Invitrogen (c-Met, TRKA, TRKB, TRKC)
Protocol: as §1

[15] = molecular target: T15, FLT1 (Homo sapiens, UniProt P17948)
T15 construct: purchased Invitrogen (c-Met, TRKA, TRKB, TRKC)
Protocol: as §1

[16] = molecular target: T16, ABL2 (Homo sapiens, UniProt P42684)
T16 construct: purchased Invitrogen (c-Met, TRKA, TRKB, TRKC)
Protocol: as §1

[17] = molecular target: T17, FES (Homo sapiens, UniProt P07332)
T17 construct: purchased Invitrogen (c-Met, TRKA, TRKB, TRKC)
Protocol: as §1

[18] = molecular target: T18, BMX (Homo sapiens, UniProt P51813)
T18 construct: purchased Invitrogen (c-Met, TRKA, TRKB, TRKC)
T18 sequence (P51813 whole entry): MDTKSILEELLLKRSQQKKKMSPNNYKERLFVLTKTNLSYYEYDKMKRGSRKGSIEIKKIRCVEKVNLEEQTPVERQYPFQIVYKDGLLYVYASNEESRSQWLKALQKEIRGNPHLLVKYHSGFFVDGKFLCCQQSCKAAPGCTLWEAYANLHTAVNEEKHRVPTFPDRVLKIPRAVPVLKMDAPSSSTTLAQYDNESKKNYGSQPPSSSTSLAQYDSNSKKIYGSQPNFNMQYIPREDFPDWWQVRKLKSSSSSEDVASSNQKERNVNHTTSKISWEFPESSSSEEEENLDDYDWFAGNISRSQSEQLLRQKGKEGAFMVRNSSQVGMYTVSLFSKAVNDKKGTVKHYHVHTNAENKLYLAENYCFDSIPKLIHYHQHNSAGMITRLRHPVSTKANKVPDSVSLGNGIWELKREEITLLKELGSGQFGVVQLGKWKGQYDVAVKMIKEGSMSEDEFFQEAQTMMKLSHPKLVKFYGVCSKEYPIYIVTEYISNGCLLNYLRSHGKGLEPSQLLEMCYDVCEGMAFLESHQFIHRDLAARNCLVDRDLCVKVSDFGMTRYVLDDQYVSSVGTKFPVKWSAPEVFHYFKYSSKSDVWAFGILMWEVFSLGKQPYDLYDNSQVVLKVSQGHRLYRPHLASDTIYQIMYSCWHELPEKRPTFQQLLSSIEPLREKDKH
Protocol: as §1

[19] = molecular target: T19, CSF1R (Homo sapiens, UniProt P07333)
T19 construct: purchased Invitrogen (c-Met, TRKA, TRKB, TRKC)
Protocol: as §1

[20] = molecular target: T20, FGR (Homo sapiens, UniProt P09769)
T20 construct: purchased Invitrogen (c-Met, TRKA, TRKB, TRKC)
Protocol: as §1

[21] = molecular target: T21, EPHB2 (Homo sapiens, UniProt P29323)
T21 construct: purchased Invitrogen (c-Met, TRKA, TRKB, TRKC)
Protocol: as §1

[22] = molecular target: T22, FGFR1 (Homo sapiens, UniProt P11362)
T22 construct: purchased Invitrogen (c-Met, TRKA, TRKB, TRKC)
Protocol: as §1

[23] = molecular target: T23, SYK (Homo sapiens, UniProt P43405)
T23 construct: purchased Invitrogen (c-Met, TRKA, TRKB, TRKC)
Protocol: as §1

[24] = molecular target: T24, EGFR T790M L858R (Homo sapiens, UniProt P00533, L858R/T790M)
T24 construct: purchased Invitrogen (c-Met, TRKA, TRKB, TRKC)
Protocol: as §1

[25] = molecular target: T25, ALK (Homo sapiens, UniProt Q9UM73)
T25 construct: purchased Invitrogen (c-Met, TRKA, TRKB, TRKC)
T25 sequence (Q9UM73 19-1620): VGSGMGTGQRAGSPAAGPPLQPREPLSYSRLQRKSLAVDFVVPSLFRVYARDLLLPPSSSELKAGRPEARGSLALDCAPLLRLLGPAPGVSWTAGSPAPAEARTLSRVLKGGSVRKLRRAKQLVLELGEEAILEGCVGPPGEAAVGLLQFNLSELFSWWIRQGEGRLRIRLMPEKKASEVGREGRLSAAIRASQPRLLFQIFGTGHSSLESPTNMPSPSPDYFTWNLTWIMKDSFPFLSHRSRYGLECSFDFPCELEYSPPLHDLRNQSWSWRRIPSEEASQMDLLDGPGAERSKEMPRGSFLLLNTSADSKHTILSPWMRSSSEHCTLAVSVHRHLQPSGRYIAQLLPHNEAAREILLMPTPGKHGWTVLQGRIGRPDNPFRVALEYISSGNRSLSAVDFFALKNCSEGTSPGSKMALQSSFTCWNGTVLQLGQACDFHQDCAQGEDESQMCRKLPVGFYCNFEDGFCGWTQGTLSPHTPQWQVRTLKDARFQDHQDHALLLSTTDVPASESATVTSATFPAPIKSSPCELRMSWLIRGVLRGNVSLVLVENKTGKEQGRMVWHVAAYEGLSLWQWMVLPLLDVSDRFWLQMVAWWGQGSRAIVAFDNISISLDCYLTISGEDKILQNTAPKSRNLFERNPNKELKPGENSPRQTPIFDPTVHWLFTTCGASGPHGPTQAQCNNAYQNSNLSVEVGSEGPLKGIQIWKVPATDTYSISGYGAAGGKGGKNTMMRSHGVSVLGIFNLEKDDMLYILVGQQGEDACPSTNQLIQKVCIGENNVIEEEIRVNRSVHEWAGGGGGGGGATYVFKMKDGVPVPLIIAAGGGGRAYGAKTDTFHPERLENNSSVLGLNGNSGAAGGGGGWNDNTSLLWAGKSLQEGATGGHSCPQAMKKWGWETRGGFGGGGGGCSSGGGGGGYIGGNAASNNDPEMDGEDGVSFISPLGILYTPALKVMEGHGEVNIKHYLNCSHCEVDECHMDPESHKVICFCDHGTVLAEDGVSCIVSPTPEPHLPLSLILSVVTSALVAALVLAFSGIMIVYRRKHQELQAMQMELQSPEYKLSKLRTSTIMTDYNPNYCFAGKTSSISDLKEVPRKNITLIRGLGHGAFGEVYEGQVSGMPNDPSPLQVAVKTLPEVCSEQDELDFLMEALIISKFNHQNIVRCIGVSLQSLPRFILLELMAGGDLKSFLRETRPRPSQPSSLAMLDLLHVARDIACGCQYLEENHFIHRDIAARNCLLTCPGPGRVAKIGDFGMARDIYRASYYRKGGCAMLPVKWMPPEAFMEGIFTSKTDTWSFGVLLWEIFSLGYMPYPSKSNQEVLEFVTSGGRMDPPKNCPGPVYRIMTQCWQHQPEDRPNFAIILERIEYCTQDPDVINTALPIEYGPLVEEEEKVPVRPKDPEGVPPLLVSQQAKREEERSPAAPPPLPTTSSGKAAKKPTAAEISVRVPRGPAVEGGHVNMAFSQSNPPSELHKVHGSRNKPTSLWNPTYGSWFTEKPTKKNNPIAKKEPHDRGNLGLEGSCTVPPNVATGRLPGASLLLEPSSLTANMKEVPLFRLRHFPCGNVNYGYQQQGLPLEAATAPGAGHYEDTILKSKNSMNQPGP
Protocol: as §1

[26] = molecular target: T26, BTK (Homo sapiens, UniProt Q06187)
T26 construct: purchased Invitrogen (c-Met, TRKA, TRKB, TRKC)
Protocol: as §1

[27] = molecular target: T27, SRM (Homo sapiens, UniProt Q9H3Y6)
T27 construct: purchased Invitrogen (c-Met, TRKA, TRKB, TRKC)
Protocol: as §1

[28] = molecular target: T28, EPHA6 (Homo sapiens, UniProt Q9UF33)
T28 construct: purchased Invitrogen (c-Met, TRKA, TRKB, TRKC)
Protocol: as §1

[29] = molecular target: T29, YES (Homo sapiens, UniProt P07947)
T29 construct: purchased Invitrogen (c-Met, TRKA, TRKB, TRKC)
Protocol: as §1

[30] = molecular target: T30, AXL (Homo sapiens, UniProt P30530)
T30 construct: purchased Invitrogen (c-Met, TRKA, TRKB, TRKC)
Protocol: as §1

[31] = molecular target: T31, JAK1 (Homo sapiens, UniProt P23458)
T31 construct: purchased Invitrogen (c-Met, TRKA, TRKB, TRKC)
Protocol: as §1

[32] = molecular target: T32, TRKC (Homo sapiens, UniProt Q16288)
T32 construct: purchased Invitrogen (c-Met, TRKA, TRKB, TRKC)
Protocol: as §1

[33] = molecular target: T33, Her4 (Homo sapiens, UniProt Q15303)
T33 construct: purchased Invitrogen (c-Met, TRKA, TRKB, TRKC)
Protocol: as §1

[34] = molecular target: T34, FYN [a] (Homo sapiens, UniProt P06241)
T34 construct: purchased Invitrogen (c-Met, TRKA, TRKB, TRKC)
T34 sequence (P06241 whole entry): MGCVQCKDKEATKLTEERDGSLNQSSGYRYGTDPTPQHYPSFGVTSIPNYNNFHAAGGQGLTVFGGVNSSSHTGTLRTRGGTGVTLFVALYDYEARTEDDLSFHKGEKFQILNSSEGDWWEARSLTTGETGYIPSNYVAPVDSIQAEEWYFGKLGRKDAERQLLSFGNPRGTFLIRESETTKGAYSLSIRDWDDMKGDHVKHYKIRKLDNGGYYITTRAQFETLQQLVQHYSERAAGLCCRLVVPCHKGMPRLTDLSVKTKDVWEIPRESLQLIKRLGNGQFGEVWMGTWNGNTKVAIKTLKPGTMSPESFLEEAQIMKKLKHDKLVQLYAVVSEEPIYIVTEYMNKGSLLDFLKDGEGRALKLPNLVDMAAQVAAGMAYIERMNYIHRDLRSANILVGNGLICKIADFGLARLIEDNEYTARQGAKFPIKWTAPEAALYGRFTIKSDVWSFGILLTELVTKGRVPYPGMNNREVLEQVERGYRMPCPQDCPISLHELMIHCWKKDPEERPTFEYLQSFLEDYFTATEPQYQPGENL
Protocol: as §1

[35] = molecular target: T35, ZAP70 (Homo sapiens, UniProt P43403)
T35 construct: purchased Invitrogen (c-Met, TRKA, TRKB, TRKC)
Protocol: as §1

[36] = molecular target: T36, DDR1 (Homo sapiens, UniProt Q08345)
T36 construct: purchased Invitrogen (c-Met, TRKA, TRKB, TRKC)
Protocol: as §1

[37] = molecular target: T37, ABL1 (Homo sapiens, UniProt P00519)
T37 construct: purchased Invitrogen (c-Met, TRKA, TRKB, TRKC)
Protocol: as §1

[38] = molecular target: T38, FGFR4 (Homo sapiens, UniProt P22455)
T38 construct: purchased Invitrogen (c-Met, TRKA, TRKB, TRKC)
Protocol: as §1

[39] = molecular target: T39, MUSK (Homo sapiens, UniProt O15146)
T39 construct: purchased Invitrogen (c-Met, TRKA, TRKB, TRKC)
Protocol: as §1

[40] = molecular target: T40, TEC (Homo sapiens, UniProt P42680)
T40 construct: purchased Invitrogen (c-Met, TRKA, TRKB, TRKC)
Protocol: as §1

[2H][C@@](C)(c1cccc(-c2ncc(OCC3CCN(C)CC3)cn2)c1)n1nc(-c2cccc(C#N)c2)ccc1=O [1D228]
inhibition at 0.5 µM [1]: 1.38%
inhibition at 0.5 µM [2]: 8.21%
inhibition at 0.5 µM [3]: 18.6%
inhibition at 0.5 µM [4]: -4.06%
inhibition at 0.5 µM [5]: 98.4%
inhibition at 0.5 µM [6]: -3.07%
inhibition at 0.5 µM [7]: 3.05%
inhibition at 0.5 µM [8]: 1.82%
inhibition at 0.5 µM [9]: 3.88%
inhibition at 0.5 µM [10]: -13.3%
inhibition at 0.5 µM [11]: -1.36%
inhibition at 0.5 µM [12]: 1.6%
inhibition at 0.5 µM [13]: 97.1%
inhibition at 0.5 µM [14]: 5.62%
inhibition at 0.5 µM [15]: 6%
inhibition at 0.5 µM [16]: 4.45%
inhibition at 0.5 µM [17]: 1.05%
inhibition at 0.5 µM [18]: 5.12%
inhibition at 0.5 µM [19]: 3.21%
inhibition at 0.5 µM [20]: -20.7%
inhibition at 0.5 µM [21]: -3.54%
inhibition at 0.5 µM [22]: 1.72%
inhibition at 0.5 µM [23]: 2.47%
inhibition at 0.5 µM [24]: 11.1%
inhibition at 0.5 µM [25]: 89.5%
inhibition at 0.5 µM [26]: -3.81%
inhibition at 0.5 µM [27]: 2.66%
inhibition at 0.5 µM [28]: -1.78%
inhibition at 0.5 µM [29]: 11.3%
inhibition at 0.5 µM [30]: 89.2%
inhibition at 0.5 µM [31]: 7.19%
inhibition at 0.5 µM [32]: 99%
inhibition at 0.5 µM [33]: 2.21%
inhibition at 0.5 µM [34]: -7.78%
inhibition at 0.5 µM [35]: -0.66%
inhibition at 0.5 µM [36]: -11.8%
inhibition at 0.5 µM [37]: 6.37%
inhibition at 0.5 µM [38]: -0.37%
inhibition at 0.5 µM [39]: 9.13%
inhibition at 0.5 µM [40]: 8.29%

Reference: article PMC10636171 (Cell Death & Disease, 2023)
